Measured values published in patent US6479487B1, “6, 9-disubstituted 2-[trans-(4-aminocyclohexyl)amino] purines” (Aventis Pharmaceuticals Inc., priority 1998, dated 2002).
“And” between values parts separate entries of the source, which are not always exact repeats. Equal entries are not always repeated. Structures can show the parent of a compound that is named as a salt. Where two headings read alike, the source gives them in different places.

What was measured:
HT-29 = experiment: In vitro tumor cell proliferation, HT-29; assay type: cell-based, human; conditions: many values given with an undefined *, read-out: In vitro Tumor Cell Proliferation (IC50, μM) Colon HT-29
In short: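 Growth was quantified either with CyQUANT, plates frozen at −80° C after 3 days of drug, or by sulforhodamine B staining of TCA-fixed cells after 3 days of drug plus 4 days with fresh drug. Trypan blue-excluding HT-29 cells were plated overnight at 37° C before dosing.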

MDA-MB-435 = experiment: In vitro tumor cell proliferation, MDA-MB-435; assay type: cell-based; conditions: values given with an undefined *, read-out: In vitro Tumor Cell Proliferation (IC50, μM) Breast MDA-MB-435
In short: (§1)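 Growth was quantified by sulforhodamine B staining of TCA-fixed cells after 3 days of drug plus 4 more days with fresh drug, or by CyQUANT after 3 days of drug and freezing at −80° C. Counted viable cells were plated and incubated overnight at 37° C before drug.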

MDA-MB-231 = experiment: In vitro tumor cell proliferation, MDA-MB-231; assay type: cell-based, human; conditions: sulforhodamine B or CyQUANT assay, many values given with an undefined *, read-out: In vitro Tumor Cell Proliferation (IC50, μM) Breast MDA-MB-231
In short: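 Proliferation quantified by SRB staining of TCA-fixed cells after 3 days of drug plus 4 days with replenished drug, following overnight attachment at 37 °C.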

cdk2/cyclin E = molecular target: T1, cdk2/cyclin E (Homo sapiens, UniProt P24941); experiment: Cyclin-Dependent Kinase 2 Assay (cdk2/cyclin E, GST-Rb substrate); assay type: biochemical; conditions: recombinant cdk2/cyclin E, 10 μM ATP, 30 min at 30° C., several values in a cell = separate determinations, read-out: CDK-2 Inhibition IC50
T1 construct: made in house; host or cells: insect cells (baculovirus co-infection)
Experimental: Substrate: GST-Rb as described above for cdk4/cyclin D1
Assay conditions for cdk2/cyclin E were identical to those for cdk4/cyclin D1 including the substrate. The concentration of recombinant cdk2/cyclin E in the assay was 0.1 μg per 100 μl assay. Incubation was for 30 min at 30° C.

DMS-114 = experiment: In vitro tumor cell proliferation, DMS-114; assay type: cell-based, human; conditions: many values given with an undefined *, read-out: In vitro Tumor Cell Proliferation (IC50, μM) Lung DMS-114
In short: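 Human small cell lung carcinoma DMS-114 cells plated overnight, then drug-treated for 3 days, medium and drug renewed, and incubated 4 more days. Growth read by sulforhodamine B staining after TCA fixation; alternatively by CyQUANT after 3 days' drug exposure and freezing at −80 °C.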

cdk4/cyclin D1 = molecular target: T2, cdk4/cyclin D1 (Homo sapiens, UniProt P11802); experiment: Cyclin-dependent Kinase 4 Assay (cdk4/cyclin D1, GST-Rb substrate); assay type: biochemical; conditions: cdk4/cyclin D1 insect cell lysate, 10 μM ATP, 30 min at 37° C., several values = separate determinations, read-out: CDK4 Inhibition IC50
T2 construct: made in house; host or cells: Sf9 insect cells (Bac-to-Bac baculovirus, pFastBac)
T2 sequence (P11802 whole entry): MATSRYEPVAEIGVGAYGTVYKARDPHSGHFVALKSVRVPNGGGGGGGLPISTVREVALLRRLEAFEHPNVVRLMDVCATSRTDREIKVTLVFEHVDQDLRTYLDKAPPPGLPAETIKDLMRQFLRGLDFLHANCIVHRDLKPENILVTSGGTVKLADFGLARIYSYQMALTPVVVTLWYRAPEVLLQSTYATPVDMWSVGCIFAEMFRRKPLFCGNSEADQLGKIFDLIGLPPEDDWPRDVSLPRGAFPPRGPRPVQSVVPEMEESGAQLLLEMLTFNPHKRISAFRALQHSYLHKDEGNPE
T2 sequence (P24385 whole entry partner): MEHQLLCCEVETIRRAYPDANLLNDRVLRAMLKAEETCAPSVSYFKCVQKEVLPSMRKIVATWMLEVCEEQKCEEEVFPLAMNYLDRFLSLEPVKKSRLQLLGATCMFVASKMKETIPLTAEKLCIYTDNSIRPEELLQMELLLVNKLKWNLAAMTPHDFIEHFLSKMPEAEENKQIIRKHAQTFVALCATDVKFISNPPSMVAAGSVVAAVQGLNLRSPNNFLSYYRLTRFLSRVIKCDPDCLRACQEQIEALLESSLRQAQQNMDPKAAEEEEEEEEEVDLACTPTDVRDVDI
In short: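 IC50 against cdk4 measured by scintillation counting of bead-bound GST-Rb (0.5 μg) after filtration and four TNEN washes. Reaction was 30 min at 37 °C in HEPES pH 7.5 buffer with 10 mM MgCl2 and 1 mM EGTA. Enzyme source was 0.1 μg Sf9 lysate coinfected with cdk4 and cyclin D1.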

A549 = experiment: In vitro tumor cell proliferation, A549; assay type: cell-based, human; conditions: many values given with an undefined *, read-out: In vitro Tumor Cell Proliferation (IC50, μM) Lung A549
In short: as §1

Colo-205 = experiment: In vitro tumor cell proliferation, Colo-205; assay type: cell-based; conditions: values given with an undefined *, read-out: In vitro Tumor Cell Proliferation (IC50, μM) Colon Colo-205
In short: as §1

PC-3 = experiment: In vitro tumor cell proliferation, PC-3; assay type: cell-based, human; conditions: many values given with an undefined *, read-out: In vitro Tumor Cell Proliferation (IC50, μM) Prostate PC-3
In short: as §1

DU145 = experiment: In vitro tumor cell proliferation, DU145; assay type: cell-based, human; conditions: many values given with an undefined *, read-out: In vitro Tumor Cell Proliferation (IC50, μM) Prostate DU145
In short: as §1

[1] = Homo sapiens, MDA-MB-435, MDA-MB-435
[2] = Homo sapiens, MDA-MB-231, MDA-MB-231
[3] = Homo sapiens, COLO 205, Colo-205

| IC50 (HT-29; HT-29, trihydrochloride) [µM] | IC50 (HT-29; Homo sapiens, HT-29, HT-29) [µM] | IC50 (MDA-MB-435; [1]) [µM] | IC50 (MDA-MB-435; MDA-MB-435, trihydrochloride) [µM] | IC50 (MDA-MB-231; [2]) [µM] | IC50 (MDA-MB-231; MDA-MB-231, trihydrochloride) [µM] | IC50 (cdk2/cyclin E) | IC50 (DMS-114; DMS-114, trihydrochloride) [µM] | IC50 (DMS-114; Homo sapiens, DMS-114, DMS-114) [µM] | IC50 (cdk4/cyclin D1) | IC50 (A549; A549, trihydrochloride) [µM] | IC50 (A549; Homo sapiens, A549, A549) [µM] | IC50 (Colo-205; Colo-205, trihydrochloride) [µM] | IC50 (Colo-205; [3]) [µM] | IC50 (PC-3; Homo sapiens, PC-3, PC-3) [µM] | IC50 (PC-3; PC-3, trihydrochloride) [µM] | IC50 (DU145; DU145, trihydrochloride) [µM] | IC50 (DU145; Homo sapiens, DU-145, DU145) [µM] | further results | Structure (SMILES) |
| --- | --- | --- | --- | --- | --- | --- | --- | --- | --- | --- | --- | --- | --- | --- | --- | --- | --- | --- | --- |
| 0.83 | 0.76 | 1 | 1.3 | 0.63 | 1.2 | 240 nM | 1.1 | 1.9 | 2000 nM and 3400 nM | 0.63 | 0.5 | 0.77 | 0.58 | 0.85 | 1.1 | 0.57 | 0.52 |  | N[C@H]1CC[C@H](Nc2nc(NC3CCN(Cc4c(F)cccc4F)CC3)c3ncn(C4CCCC4)c3n2)CC1 [Example 147-v, 2-[Trans-(4-aminocyclohexyl)amino]-6-[4-[1-(2,6-difluorobenzyl)]piperidinylamino]-9-cyclopentylpurine trihydrochloride] |
|  | 0.25 | 0.37 |  | 0.24 |  | 200 nM and 150 nM |  | 0.27 | 1000 nM and 1200 nM and 2000 nM |  | 0.16 |  | 0.19 | 0.21 |  |  | 0.22 | IC50 (HT-29; HT-29): 0.28 µM; IC50 (MDA-MB-435; MDA-MB-435): 0.44 µM; IC50 (MDA-MB-231; MDA-MB-231): 0.3 µM; IC50 (DMS-114; DMS-114): 0.2 µM; IC50 (A549; A549): 0.14 µM; IC50 (PC-3; PC-3): 0.34 µM; IC50 (DU145; DU145): 0.23 µM | N[C@H]1CC[C@H](Nc2nc(NC3CCN(Cc4cccc(Cl)c4)CC3)c3ncn(C4CCCC4)c3n2)CC1 [Example 42, 2-[Trans-(4-aminocyclohexyl)amino]-6-[4-(1-(3-chlorobenzyl))piperidinylamino]-9-cyclopentylpurine] |
| 0.39 | 0.37 | 0.57 | 0.51 | 0.35 | 0.4 | 130 nM and 180 nM |  | 0.45 | 4000 nM and 2100 nM |  | 0.21 |  | 0.32 | 0.44 | 0.46 | 0.39 | 0.35 |  | N[C@H]1CC[C@H](Nc2nc(NC3CCN(Cc4cc(Cl)cc(Cl)c4)CC3)c3ncn(C4CCCC4)c3n2)CC1 [Example 147-w, 2-[Trans-(4-aminocyclohexyl)amino]-6-[4-[1-(3,5-dichlorobenzyl)]piperidinylamino]-9-cyclopentylpurine trihydrochloride] |
|  | 1 | 1.3 |  | 0.78 |  | 230 nM |  | 0.47 | 400 nM and 700 nM |  | 0.35 |  | 1 | 1.1 |  |  | 0.56 | IC50 (HT-29; HT-29, dihydrochloride): 1.1 µM; IC50 (MDA-MB-435; MDA-MB-435, dihydrochloride): 1.5 µM; IC50 (MDA-MB-231; MDA-MB-231, dihydrochloride): 0.87 µM; IC50 (A549; A549, dihydrochloride): 0.53 µM; IC50 (Colo-205; Colo-205, dihydrochloride): 1.2 µM; IC50 (PC-3; PC-3, dihydrochloride): 0.7 µM; IC50 (DU145; DU145, dihydrochloride): 0.7 µM | N[C@H]1CC[C@H](Nc2nc(Nc3ccc(OC(F)(F)F)cc3)c3ncn(C4CCCC4)c3n2)CC1 [Example 5, 2-[Trans-(4-aminocyclohexyl)amino]-6-[(4-trifluoromethoxy)phenylamino]-9-cyclopentylpurine dihydrochloride] |
| 0.35 | 0.34 | 0.42 | 0.56 | 0.32 | 0.33 | 65 nM and 77 nM | 0.32 | 0.29 | 370 nM | 0.22 | 0.17 | 0.17 | 0.18 | 0.25 | 0.5 | 0.35 | 0.32 |  | N[C@H]1CC[C@H](Nc2nc(NC3CCN(Cc4cccc(C(F)(F)F)c4)CC3)c3ncn(C4CCCC4)c3n2)CC1 [Example 147-m, 2-[Trans-(4-aminocyclohexyl)amino]-6-[4-[1-(3-trifluoromethylbenzyl)]piperidinylamino]-cyclopentylpurine trihydrochloride] |
| 0.93 | 1 | 0.97 | 1.1 | 0.79 | 0.75 | 170 nM and 370 nM and 530 nM and 400 nM | 1 | 1.4 | 3300 nM and 1200 nM | 0.62 | 0.47 | 0.66 | 0.61 | 0.78 | 0.82 | 0.66 | 0.71 |  | N[C@H]1CC[C@H](Nc2nc(NCC3CCN(Cc4ccccc4)CC3)c3ncn(C4CCCC4)c3n2)CC1 [Example 147-ac, 2-[Trans-(4-aminocyclohexyl)amino]-6-[4-(1-benzyl)piperidinylmethylamino]-9-cyclopentylpurine trihydrochloride] |
| 7.7 |  |  | 11 | 6.2 | 6.4 | 690 nM | 9.6 | 6.3 | 300 nM and 700 nM |  | 7.2 | 4.7 | 5.4 | 6.4 | 8.2 | 7.9 | 7.8 |  | CCN(CC)CCNc1nc(N[C@H]2CC[C@H](N)CC2)nc2c1ncn2C1CCCC1 [Example 6, 2-[Trans-(4-aminocyclohexyl)amino]-6-[2-(diethylamino)ethylamino]-9-cyclopentylpurine trihydrochloride] |
